# Test results taken from the kinase profiling compilation of Christmann-Franck et al. (2016).
# How the values were obtained:
# Experiment in all cases: KINOMEscan competition binding
# Details in all cases: compound 10.0 µM
# PAK7 (human) = PAK7 (human) (UniProt Q9P286)
# FGFR3 (human) = FGFR3 (human) (UniProt P22607)
# CAMKK2 (human) = CAMKK2 (human) (UniProt Q96RR4)
# ITK (human) = ITK (human) (UniProt Q08881)
# MARK2 (human) = MARK2 (human) (UniProt Q7KZI7)
# MATK (human) = MATK (human) (UniProt P42679)
# PLK2 (human) = PLK2 (human) (UniProt Q9NYY3)
# PLK2 (human), sequence (Q9NYY3 whole entry, looked up): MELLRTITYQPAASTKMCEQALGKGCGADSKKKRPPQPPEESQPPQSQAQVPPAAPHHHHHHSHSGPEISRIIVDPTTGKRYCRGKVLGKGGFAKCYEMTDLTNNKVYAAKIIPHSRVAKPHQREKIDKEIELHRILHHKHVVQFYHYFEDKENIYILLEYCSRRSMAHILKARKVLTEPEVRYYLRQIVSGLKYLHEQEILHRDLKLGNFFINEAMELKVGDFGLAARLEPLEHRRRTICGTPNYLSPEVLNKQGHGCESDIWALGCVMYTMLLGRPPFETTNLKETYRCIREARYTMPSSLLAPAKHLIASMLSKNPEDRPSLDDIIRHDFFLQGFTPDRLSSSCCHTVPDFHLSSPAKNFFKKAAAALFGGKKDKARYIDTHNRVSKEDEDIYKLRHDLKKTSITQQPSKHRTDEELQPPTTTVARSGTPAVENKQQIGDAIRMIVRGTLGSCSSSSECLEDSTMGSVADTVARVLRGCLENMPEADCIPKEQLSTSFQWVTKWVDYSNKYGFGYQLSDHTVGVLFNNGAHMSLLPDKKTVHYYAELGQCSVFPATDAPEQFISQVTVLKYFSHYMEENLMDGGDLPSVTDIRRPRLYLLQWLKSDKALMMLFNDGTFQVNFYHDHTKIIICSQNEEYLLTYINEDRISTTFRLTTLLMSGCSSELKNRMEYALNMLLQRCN
# ACVRL1 (human) = ACVRL1 (human) (UniProt P37023)
# [1] = molecular target: TYK2 JH2 pseudokinase (human) (UniProt P29597)
# LTK (human) = LTK (human) (UniProt P29376)
# LTK (human), sequence (P29376 whole entry, looked up): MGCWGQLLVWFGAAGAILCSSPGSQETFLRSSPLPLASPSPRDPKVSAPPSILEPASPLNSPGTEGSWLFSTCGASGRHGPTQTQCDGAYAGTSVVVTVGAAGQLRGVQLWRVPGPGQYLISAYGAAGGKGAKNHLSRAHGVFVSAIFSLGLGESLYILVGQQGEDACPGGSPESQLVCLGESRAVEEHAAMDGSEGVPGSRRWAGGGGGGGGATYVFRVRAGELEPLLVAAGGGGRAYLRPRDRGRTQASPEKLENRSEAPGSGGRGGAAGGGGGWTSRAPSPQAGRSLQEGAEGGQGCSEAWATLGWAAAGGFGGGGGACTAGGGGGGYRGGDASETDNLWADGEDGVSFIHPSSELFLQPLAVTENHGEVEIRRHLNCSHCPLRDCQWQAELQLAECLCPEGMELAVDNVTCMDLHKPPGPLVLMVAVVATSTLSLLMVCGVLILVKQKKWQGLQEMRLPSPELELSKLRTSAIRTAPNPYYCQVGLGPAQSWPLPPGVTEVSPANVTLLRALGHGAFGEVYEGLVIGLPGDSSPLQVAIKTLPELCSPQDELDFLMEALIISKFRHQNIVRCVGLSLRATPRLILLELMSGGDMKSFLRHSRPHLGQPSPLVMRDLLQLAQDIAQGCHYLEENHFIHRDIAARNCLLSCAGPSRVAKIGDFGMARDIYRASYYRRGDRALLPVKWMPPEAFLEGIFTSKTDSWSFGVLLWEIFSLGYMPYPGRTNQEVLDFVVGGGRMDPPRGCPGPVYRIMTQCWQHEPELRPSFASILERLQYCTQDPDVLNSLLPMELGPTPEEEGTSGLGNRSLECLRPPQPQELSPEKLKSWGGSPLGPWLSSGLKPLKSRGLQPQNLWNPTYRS
# ROCK2 (human) = ROCK2 (human) (UniProt O75116)
# DSTYK (human) = DSTYK (human) (UniProt Q6XUX3)
# EPHB1 (human) = EPHB1 (human) (UniProt P54762)
# STK24 (human) = STK24 (human) (UniProt Q9Y6E0)
# CRK2 (P.falciparum) = CRK2 (P.falciparum) (UniProt P61075)
# NEK7 (human) = NEK7 (human) (UniProt Q8TDX7)
# NEK7 (human), sequence (Q8TDX7 whole entry, looked up): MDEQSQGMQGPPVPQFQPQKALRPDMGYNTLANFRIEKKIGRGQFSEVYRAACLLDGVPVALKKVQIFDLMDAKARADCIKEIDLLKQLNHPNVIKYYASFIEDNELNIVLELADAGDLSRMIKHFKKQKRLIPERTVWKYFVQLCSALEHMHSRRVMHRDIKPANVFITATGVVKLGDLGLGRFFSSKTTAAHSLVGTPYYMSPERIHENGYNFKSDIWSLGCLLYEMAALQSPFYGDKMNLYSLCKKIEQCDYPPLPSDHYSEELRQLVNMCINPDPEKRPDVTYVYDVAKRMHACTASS
# CDK13 (human) = CDK13 (human) (UniProt Q14004)
# SIK2 (human) = SIK2 (human) (UniProt Q9H0K1)
# EPHB4 (human) = EPHB4 (human) (UniProt P54760)
# STK4 (human) = STK4 (human) (UniProt Q13043)
# CAMKK1 (human) = CAMKK1 (human) (UniProt Q8N5S9)
# RIOK2 (human) = RIOK2 (human) (UniProt Q9BVS4)
# RIOK2 (human), sequence (Q9BVS4 whole entry, looked up): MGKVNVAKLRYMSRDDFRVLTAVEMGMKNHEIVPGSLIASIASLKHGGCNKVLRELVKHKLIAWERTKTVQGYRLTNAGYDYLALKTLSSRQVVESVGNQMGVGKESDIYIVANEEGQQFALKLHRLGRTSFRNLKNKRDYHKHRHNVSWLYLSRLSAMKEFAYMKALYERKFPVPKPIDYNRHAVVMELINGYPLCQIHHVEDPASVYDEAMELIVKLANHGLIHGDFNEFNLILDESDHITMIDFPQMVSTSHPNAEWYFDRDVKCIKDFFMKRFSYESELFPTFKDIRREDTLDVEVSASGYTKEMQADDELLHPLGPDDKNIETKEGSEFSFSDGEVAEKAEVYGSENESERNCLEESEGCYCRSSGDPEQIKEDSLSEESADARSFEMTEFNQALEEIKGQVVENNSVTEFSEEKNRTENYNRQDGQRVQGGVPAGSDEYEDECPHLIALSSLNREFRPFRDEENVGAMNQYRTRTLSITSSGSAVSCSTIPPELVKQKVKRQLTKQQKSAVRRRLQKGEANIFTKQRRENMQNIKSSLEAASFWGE
# MAP3K4 (human) = MAP3K4 (human) (UniProt Q9Y6R4)
# AKT1 (human) = AKT1 (human) (UniProt P31749)
# FGFR4 (human) = FGFR4 (human) (UniProt P22455)
# MUSK (human) = MUSK (human) (UniProt O15146)
# ACVR1 (human) = ACVR1 (human) (UniProt Q04771)
# MAP3K9 (human) = MAP3K9 (human) (UniProt P80192)
# PIK3C2G (human) = PIK3C2G (human) (UniProt O75747)
# MINK1 (human) = MINK1 (human) (UniProt Q8N4C8)
# FRK (human) = FRK (human) (UniProt P42685)
# FRK (human), sequence (P42685 whole entry, looked up): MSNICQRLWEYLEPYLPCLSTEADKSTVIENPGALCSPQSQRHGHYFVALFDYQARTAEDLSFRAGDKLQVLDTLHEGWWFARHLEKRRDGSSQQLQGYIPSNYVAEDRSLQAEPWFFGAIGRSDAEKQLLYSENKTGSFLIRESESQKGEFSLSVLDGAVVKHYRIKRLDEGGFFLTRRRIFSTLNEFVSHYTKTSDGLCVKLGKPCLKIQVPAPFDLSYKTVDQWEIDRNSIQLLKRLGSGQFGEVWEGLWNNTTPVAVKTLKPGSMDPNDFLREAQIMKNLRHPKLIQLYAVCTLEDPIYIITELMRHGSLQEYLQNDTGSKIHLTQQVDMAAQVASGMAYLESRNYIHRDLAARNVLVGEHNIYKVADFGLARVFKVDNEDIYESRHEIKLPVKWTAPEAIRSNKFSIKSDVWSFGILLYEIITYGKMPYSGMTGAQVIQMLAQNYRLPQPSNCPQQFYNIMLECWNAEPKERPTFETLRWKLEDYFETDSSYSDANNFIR
# [2] = molecular target: JAK2 JH1 catalytic (human) (UniProt O60674)
# STK17A (human) = STK17A (human) (UniProt Q9UEE5)
# MAP3K3 (human) = MAP3K3 (human) (UniProt Q99759)
# MAP3K3 (human), sequence (Q99759 whole entry, looked up): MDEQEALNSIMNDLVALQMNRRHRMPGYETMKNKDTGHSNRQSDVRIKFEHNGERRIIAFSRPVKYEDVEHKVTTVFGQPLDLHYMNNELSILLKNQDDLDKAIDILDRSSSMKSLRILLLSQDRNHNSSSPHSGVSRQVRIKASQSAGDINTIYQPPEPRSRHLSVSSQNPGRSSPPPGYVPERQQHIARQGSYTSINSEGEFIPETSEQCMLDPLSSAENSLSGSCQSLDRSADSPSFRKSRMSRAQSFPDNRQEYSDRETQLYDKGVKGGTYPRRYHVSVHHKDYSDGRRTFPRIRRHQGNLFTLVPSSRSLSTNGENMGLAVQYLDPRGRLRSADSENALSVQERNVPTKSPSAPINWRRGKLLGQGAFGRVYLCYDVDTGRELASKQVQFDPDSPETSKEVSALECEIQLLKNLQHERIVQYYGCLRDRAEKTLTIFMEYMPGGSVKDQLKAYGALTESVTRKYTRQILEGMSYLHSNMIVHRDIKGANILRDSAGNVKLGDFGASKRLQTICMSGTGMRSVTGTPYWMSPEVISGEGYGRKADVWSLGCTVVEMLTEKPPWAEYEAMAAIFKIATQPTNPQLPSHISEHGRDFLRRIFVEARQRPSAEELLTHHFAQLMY
# CDK4 CCND3 (human) = CDK4 CCND3 (human) (UniProt P11802+P30281)
# NEK5 (human) = NEK5 (human) (UniProt Q6P3R8)
# NEK5 (human), sequence (Q6P3R8 whole entry, looked up): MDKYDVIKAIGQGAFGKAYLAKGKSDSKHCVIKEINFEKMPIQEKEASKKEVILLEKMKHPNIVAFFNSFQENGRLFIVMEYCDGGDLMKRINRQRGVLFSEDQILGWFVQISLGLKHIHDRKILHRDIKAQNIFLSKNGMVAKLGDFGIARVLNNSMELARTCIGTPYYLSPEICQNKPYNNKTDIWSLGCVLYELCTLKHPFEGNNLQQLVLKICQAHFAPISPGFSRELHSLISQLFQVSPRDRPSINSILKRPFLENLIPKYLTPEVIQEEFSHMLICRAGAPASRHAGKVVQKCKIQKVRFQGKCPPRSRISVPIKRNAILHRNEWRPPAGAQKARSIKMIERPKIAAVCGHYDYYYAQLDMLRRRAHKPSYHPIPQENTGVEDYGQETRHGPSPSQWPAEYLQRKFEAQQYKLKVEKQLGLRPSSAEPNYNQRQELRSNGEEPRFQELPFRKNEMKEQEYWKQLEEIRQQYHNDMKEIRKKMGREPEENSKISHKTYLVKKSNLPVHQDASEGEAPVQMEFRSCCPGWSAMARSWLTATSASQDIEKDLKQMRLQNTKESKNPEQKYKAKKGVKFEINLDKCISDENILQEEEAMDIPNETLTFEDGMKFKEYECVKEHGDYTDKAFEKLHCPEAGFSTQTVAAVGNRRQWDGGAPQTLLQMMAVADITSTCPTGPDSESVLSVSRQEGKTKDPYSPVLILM
# NEK6 (human) = NEK6 (human) (UniProt Q9HC98)
# AAK1 (human) = AAK1 (human) (UniProt Q2M2I8)
# MAPK13 (human) = MAPK13 (human) (UniProt O15264)
# MAP3K1 (human) = MAP3K1 (human) (UniProt Q13233)
# ITK (human), sequence (Q08881 whole entry, looked up): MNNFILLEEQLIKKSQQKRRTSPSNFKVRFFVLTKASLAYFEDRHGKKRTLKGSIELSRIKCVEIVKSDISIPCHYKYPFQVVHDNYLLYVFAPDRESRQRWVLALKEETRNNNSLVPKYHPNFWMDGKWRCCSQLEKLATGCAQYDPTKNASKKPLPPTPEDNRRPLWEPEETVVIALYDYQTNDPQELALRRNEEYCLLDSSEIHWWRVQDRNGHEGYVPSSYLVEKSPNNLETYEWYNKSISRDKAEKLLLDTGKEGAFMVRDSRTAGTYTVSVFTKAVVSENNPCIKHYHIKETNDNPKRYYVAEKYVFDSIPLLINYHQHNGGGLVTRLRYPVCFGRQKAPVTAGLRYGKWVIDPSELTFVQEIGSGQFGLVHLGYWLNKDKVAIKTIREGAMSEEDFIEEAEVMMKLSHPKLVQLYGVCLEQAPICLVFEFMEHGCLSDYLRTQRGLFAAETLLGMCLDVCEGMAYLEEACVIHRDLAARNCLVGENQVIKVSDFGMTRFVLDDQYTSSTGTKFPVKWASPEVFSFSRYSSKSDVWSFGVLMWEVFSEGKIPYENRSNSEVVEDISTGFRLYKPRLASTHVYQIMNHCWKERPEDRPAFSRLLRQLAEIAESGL
SMILES,"kinase still bound, per cent of control (PAK7 (human)) [%]","kinase still bound, per cent of control (FGFR3 (human)) [%]","kinase still bound, per cent of control (CAMKK2 (human)) [%]","kinase still bound, per cent of control (ITK (human)) [%]","kinase still bound, per cent of control (MARK2 (human)) [%]","kinase still bound, per cent of control (MATK (human)) [%]","kinase still bound, per cent of control (PLK2 (human)) [%]","kinase still bound, per cent of control (ACVRL1 (human)) [%]","kinase still bound, per cent of control [1] [%]","kinase still bound, per cent of control (LTK (human)) [%]","kinase still bound, per cent of control (ROCK2 (human)) [%]","kinase still bound, per cent of control (EPHB1 (human)) [%]","kinase still bound, per cent of control (STK24 (human)) [%]","kinase still bound, per cent of control (NEK7 (human)) [%]","kinase still bound, per cent of control (SIK2 (human)) [%]","kinase still bound, per cent of control (EPHB4 (human)) [%]","kinase still bound, per cent of control (STK4 (human)) [%]","kinase still bound, per cent of control (CAMKK1 (human)) [%]","kinase still bound, per cent of control (RIOK2 (human)) [%]","kinase still bound, per cent of control (MAP3K4 (human)) [%]",other results
CCN(CCO)CCCOc1ccc2c(Nc3cc(CC(=O)Nc4cccc(F)c4)[nH]n3)ncnc2c1,100,92,100,96,80,71,93,97,98,17,66,98,43,94,70,100,40,71,58,90,"kinase still bound, per cent of control (DSTYK (human)): 14%; kinase still bound, per cent of control (CRK2 (P.falciparum)): 100%; kinase still bound, per cent of control (CDK13 (human)): 66%; kinase still bound, per cent of control (AKT1 (human)): 96%; kinase still bound, per cent of control (FGFR4 (human)): 100%; kinase still bound, per cent of control (MUSK (human)): 3.3%; kinase still bound, per cent of control (ACVR1 (human)): 81%; kinase still bound, per cent of control (MAP3K9 (human)): 98%; kinase still bound, per cent of control (PIK3C2G (human)): 21%; kinase still bound, per cent of control (MINK1 (human)): 25%; kinase still bound, per cent of control (FRK (human)): 90%; kinase still bound, per cent of control [2]: 58%; kinase still bound, per cent of control (STK17A (human)): 46%; kinase still bound, per cent of control (MAP3K3 (human)): 70%; kinase still bound, per cent of control (CDK4 CCND3 (human)): 100%; kinase still bound, per cent of control (NEK5 (human)): 100%"
Cc1cn(-c2cc(C(=O)Nc3ccc(C)c(NC(=O)c4ccno4)c3)cc(C(F)(F)F)c2)cn1,100,100,100,100,100,100,100,100,100,100,100,21,100,100,100,15,100,100,100,100,"kinase still bound, per cent of control (NEK6 (human)): 100%; kinase still bound, per cent of control (AAK1 (human)): 100%; kinase still bound, per cent of control (MAPK13 (human)): 100%; kinase still bound, per cent of control (MAP3K1 (human)): 100%; kinase still bound, per cent of control (AKT1 (human)): 100%; kinase still bound, per cent of control (FGFR4 (human)): 100%; kinase still bound, per cent of control (MUSK (human)): 100%; kinase still bound, per cent of control (ACVR1 (human)): 100%; kinase still bound, per cent of control (MAP3K9 (human)): 100%; kinase still bound, per cent of control (PIK3C2G (human)): 100%; kinase still bound, per cent of control (MINK1 (human)): 100%; kinase still bound, per cent of control (FRK (human)): 0.85%; kinase still bound, per cent of control [2]: 100%; kinase still bound, per cent of control (STK17A (human)): 100%; kinase still bound, per cent of control (MAP3K3 (human)): 100%; kinase still bound, per cent of control (NEK5 (human)): 100%"
CCOc1cc(N2CCC(O)CC2)ccc1Nc1ncc2c(n1)N(C)c1ccccc1C(=O)N2C,100,100,100,100,100,100,100,100,100,100,100,100,100,100,100,100,100,100,100,100,"kinase still bound, per cent of control (NEK6 (human)): 100%; kinase still bound, per cent of control (AAK1 (human)): 100%; kinase still bound, per cent of control (MAPK13 (human)): 100%; kinase still bound, per cent of control (MAP3K1 (human)): 100%; kinase still bound, per cent of control (AKT1 (human)): 100%; kinase still bound, per cent of control (FGFR4 (human)): 100%; kinase still bound, per cent of control (MUSK (human)): 100%; kinase still bound, per cent of control (ACVR1 (human)): 100%; kinase still bound, per cent of control (MAP3K9 (human)): 100%; kinase still bound, per cent of control (PIK3C2G (human)): 100%; kinase still bound, per cent of control (MINK1 (human)): 100%; kinase still bound, per cent of control (FRK (human)): 100%; kinase still bound, per cent of control [2]: 100%; kinase still bound, per cent of control (STK17A (human)): 100%; kinase still bound, per cent of control (MAP3K3 (human)): 100%; kinase still bound, per cent of control (NEK5 (human)): 100%"
